# Read-outs that look alike come from different tables or passages of the source.
# Columns and labels:
# α-glucosidase = assay: α-Glucosidase inhibition assay; type: biochemical, Saccharomyces cerevisiae
# Description: 4.5.1. α-Glucosidase Inhibition Assay
# The α-glucosidase inhibition experiment was accomplished by using a modified method. Initially, the enzyme solution (from Saccharomyces cerevisiae) (0.2 units/mL dissolved in 0.1 M phosphate buffer; pH 6.8) was mixed with the test sample (1 to 0.039 mg/mL) and incubated in an oven (37 °C for 10 min). After incubation, the substrate (p-nitrophenyl-α-D-glucopyranoside; 0.29 mM) was added to the enzyme and test sample solution and incubated for another 30 min (37 °C).
# The percentage of inhibition was determined using the following formula: % Inhibition = [1 − absorbance of test sample/absorbance of control] × 100
# [1] = molecular target: T1, bovine serum albumin (BSA) glycation by methylglyoxal (Bos taurus, UniProt P02769); assay: AGEs assay, oxidative (BSA-MGO assay); type: biochemical
# T1 construct: purchased Merck (Dorset, UK) and Oxoid (Hampshire, UK)
# T1 sequence (P02769 25-607): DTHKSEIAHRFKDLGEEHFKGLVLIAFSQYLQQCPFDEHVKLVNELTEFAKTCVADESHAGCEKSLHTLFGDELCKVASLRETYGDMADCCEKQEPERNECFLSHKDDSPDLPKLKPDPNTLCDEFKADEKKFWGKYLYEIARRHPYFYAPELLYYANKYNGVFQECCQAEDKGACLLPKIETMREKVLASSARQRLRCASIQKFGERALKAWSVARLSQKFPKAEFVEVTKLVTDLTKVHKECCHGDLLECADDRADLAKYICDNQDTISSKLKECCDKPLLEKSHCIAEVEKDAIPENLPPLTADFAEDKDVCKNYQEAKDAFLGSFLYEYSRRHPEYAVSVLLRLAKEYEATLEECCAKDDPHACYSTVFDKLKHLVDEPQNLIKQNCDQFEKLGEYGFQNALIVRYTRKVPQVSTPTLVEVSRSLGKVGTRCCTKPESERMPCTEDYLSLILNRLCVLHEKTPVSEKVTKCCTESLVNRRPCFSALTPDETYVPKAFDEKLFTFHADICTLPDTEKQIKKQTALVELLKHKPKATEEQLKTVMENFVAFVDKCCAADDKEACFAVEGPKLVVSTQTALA
# Description: The test samples were added to this reaction mixture and stored at 37 °C for a week. […] The control samples used for the experiment were prepared using the same protocol without a test sample.
# The AGEs inhibition was determined as % inhibition = {1 − [(Fluo (BSA + MGO + test substance) − Fluo (BSA + test substance)]/[(Fluo (BSA + MGO) − Fluo (BSA)]} × 100 where Fluo is the fluorescence intensity. The IC50 was calculated using MS Excel.
# [2] = molecular target: T2, BSA cross-link formation (BSA-MGO) (Bos taurus, UniProt P02769); assay: Protein cross-linking assay by SDS-PAGE, BSA-MGO; type: biochemical, bovine; settings: SDS-PAGE integrated density
# T2 construct: purchased Merck (Dorset, UK) and Oxoid (Hampshire, UK)
# T2 sequence (P02769 25-607): as above
# Description: (§1) 4.5.4. Protein Cross-Linking Assay
# (§2) Protein cross-linked by AGEs were observed by SDS-PAGE (sodium dodecyl sulphate-polyacrylamide gel electrophoresis). In this experiment, gels (10%) were made and stained with dye (0.25% Coomassie blue). The protein samples (6 µL) were diluted with Tris–HCl buffer (3.75 mL, 0.05 M; pH 6.8) also comprising sodium dodecyl sulphate (150 µL, 10% w/v), 2-mercaptoethanol 1% (v/v) and glycerin 20% v/v), followed by boiling for 5 min. The ladder (12 μL) was loaded into the well on gel preceded by the loading of bromophenol blue (2 μL). After loading, the electrophoresis was accomplished by using the Mini-Protean® Tetra Cell apparatus (Bio-Rad, UK). Afterwards, the gels were stained in a solution containing Coomassie blue [0.25% (w/v)], methanol [50% (v/v)] and acetic acid [10% (v/v)].
# (§3) 4.5.5. SDS-PAGE Gels Image Analysis
# (§4) The developed gel was stained with Coomassie blue and images were obtained using GelDoc. Finally, the Image J tool was used for the determination of integrated density (IntDen). The integrated density was employed further for the determination of percentage inhibition. The integrated density (ID) was determined as follows:Integrated density (ID) = N × (mean − background) where N is the number of pixels in the selection and the background is the modal grey value (most common pixel value) after smoothing the histogram.
# 15-LOX (lipoxygenase) = molecular target: T3, 15-LOX (lipoxygenase) (Glycine max, UniProt P08170); assay: 15-Lipoxygenase assay; type: biochemical
# T3 construct: purchased Merck (Dorset, UK) and Oxoid (Hampshire, UK)
# T3 sequence (P08170 1-839): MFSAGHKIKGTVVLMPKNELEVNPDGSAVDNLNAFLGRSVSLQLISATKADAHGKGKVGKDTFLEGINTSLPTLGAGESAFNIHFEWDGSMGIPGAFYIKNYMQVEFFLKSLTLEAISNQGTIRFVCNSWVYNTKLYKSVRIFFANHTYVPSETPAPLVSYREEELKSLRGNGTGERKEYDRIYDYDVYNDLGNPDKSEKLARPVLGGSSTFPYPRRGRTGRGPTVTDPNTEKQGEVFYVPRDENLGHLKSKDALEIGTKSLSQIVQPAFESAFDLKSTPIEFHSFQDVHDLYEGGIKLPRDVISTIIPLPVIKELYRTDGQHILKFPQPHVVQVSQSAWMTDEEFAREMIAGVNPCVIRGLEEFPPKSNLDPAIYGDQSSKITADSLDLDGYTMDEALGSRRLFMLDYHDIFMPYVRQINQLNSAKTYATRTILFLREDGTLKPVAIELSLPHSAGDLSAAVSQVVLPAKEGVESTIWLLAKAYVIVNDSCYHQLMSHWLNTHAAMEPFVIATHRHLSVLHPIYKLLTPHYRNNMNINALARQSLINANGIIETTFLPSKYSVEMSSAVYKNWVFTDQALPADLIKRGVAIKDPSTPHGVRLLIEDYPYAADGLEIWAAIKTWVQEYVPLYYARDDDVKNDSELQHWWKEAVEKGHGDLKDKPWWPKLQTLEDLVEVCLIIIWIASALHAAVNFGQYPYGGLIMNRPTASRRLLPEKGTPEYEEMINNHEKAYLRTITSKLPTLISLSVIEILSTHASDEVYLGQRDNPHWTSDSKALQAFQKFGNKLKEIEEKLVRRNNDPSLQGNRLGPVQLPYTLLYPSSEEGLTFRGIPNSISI
# Description: The anti-inflammatory activity of test samples was evaluated using a standard protocol [65]. To the enzyme solution (200 units/mL; 487.5 µL), different concentrations of test sample (12.5 µL (2–0.062 mM) in DMSO were added and incubated for 5 min at 37 °C. The absorbance was recorded immediately after the addition of substrate (500 µL of substrate (250 mM linoleic acid in 0.2 M borate buffer, pH 9) and after every min up to 5 min at 234 nm by using a UV spectrophotometer (UV-1601, SHEMADZU, Kyoto, Japan).
# The percentage inhibition of enzyme activity was calculated as follows:% inhibition = ([ΔA1/Δt] − [ΔA2/Δt]/(ΔA1/Δt) × 100 where ΔA1/Δt and ΔA2/Δt are the increase rate in absorbance at 234 nm for a sample without test substance and with test substance, respectively.
# [3] = molecular target: T4, bovine serum albumin (BSA) glycation by glucose (Bos taurus, UniProt P02769); assay: AGEs assay, non-oxidative (BSA-glucose assay); type: biochemical
# T4 construct: purchased Merck (Dorset, UK) and Oxoid (Hampshire, UK)
# T4 sequence (P02769 25-607): as the sequence (P02769 25-607) above
# Description: 4.5.2. AGEs Assay (BSA-Glucose Assay)
# The AGEs assay was accomplished by using a standard protocol. The protein source (bovine serum albumin, BSA) (10 mg/mL; 135 µL) was mixed with D-glucose solution (500 mM, 135 µL in phosphate buffer; 50 mM, pH 7.4), NaN3 (sodium azide; 0.02%) and test samples (various concentrations). The reaction mixtures were kept at 60 °C for 1 week to facilitate glycation. Finally, trichloroacetic acid (10 µL, 100%) was added to it to stop the reaction and precipitate the unbound material. […] Aminoguanidine was used as positive control. The control samples used for the experiment were prepared using the same protocol without the test sample.
# The AGEs inhibition was calculated as % inhibition = {1 − [Fluo(BSA + glucose + test substance) − Fluo (BSA + test substance)]/[Fluo (BSA + glucose) − Fluo(BSA)]} × 100 where Fluo is the fluorescence intensity. The IC50 was calculated using MS Excel.
# [4] = molecular target: T5, BSA cross-link formation (BSA-glucose) (Bos taurus, UniProt P02769); assay: Protein cross-linking assay by SDS-PAGE, BSA-glucose; type: biochemical, bovine; settings: SDS-PAGE integrated density
# T5 construct: purchased Merck (Dorset, UK) and Oxoid (Hampshire, UK)
# T5 sequence (P02769 25-607): as the sequence (P02769 25-607) above
# Description: as §1, §2, §3, §4
# [5] = read-out: 15-LOX Assay (% Inhibition)
# [6] = oxidative mode, Table 6, read-out: Protein Glycation BSA-MGO (IC50) (converted)
# [7] = non-oxidative mode, Table 6, read-out: Protein Glycation BSA-Glucose (IC50) (converted)
smiles,measurement,setting,value
"S=C=NCCc1ccccc1 [2-Phenylethylisothiocyanate, 2-phenylethylisothiocyanate]",α-Glucosidase (IC50),α-glucosidase,28.9 ± 0.1 µg/mL
same,Protein Glycation BSA-MGO (IC50),[1],Inactive
same,Inhibition of protein cross-link formation,[2],48%
same,15-LOX Assay (% Inhibition),15-LOX (lipoxygenase); 25 µg/mL,Inactive ^5
same,Protein Glycation BSA-Glucose (IC50),[3],Inactive
"O=c1cc(-c2ccc(O)cc2)oc2cc(O)cc(O)c12 [Apigenin, apigenin]",α-Glucosidase (IC50),α-glucosidase,24.4 ± 0.1 µg/mL
same,Inhibition of protein cross-link formation,[4],51%
same,Protein Glycation BSA-MGO (IC50),[1],Inactive
same,inhibition at 14.1 µg/mL,15-LOX (lipoxygenase); 14.1 µg/mL,53 ± 0.1%
same,IC50,[3],1670 µM
"C=C1CC[C@H]2O[C@]2(C)CC[C@@H]2[C@@H]1CC2(C)C [Caryophyllene oxide, caryophyllene-oxide]",α-Glucosidase (IC50),α-glucosidase,Inactive
same,Protein Glycation BSA-MGO (IC50),"[1]; oxidative mode, Table 6",Inactive
same,Inhibition of protein cross-link formation,[2],35%
same,15-LOX Assay (% Inhibition),15-LOX (lipoxygenase); 12.5 µg/mL,50.0± 0.1% ^2
same,Protein Glycation BSA-Glucose (IC50),"[3]; non-oxidative mode, Table 6",Inactive
"C=C1CC/C=C(\C)CC[C@@H]2[C@@H]1CC2(C)C [Caryophyllene, trans-caryophyllene]",α-Glucosidase (IC50),α-glucosidase,Inactive
same,Protein Glycation BSA-MGO (IC50),[1],Inactive
same,15-LOX Assay (% Inhibition),15-LOX (lipoxygenase); 25 µg/mL,Inactive ^6
same,Protein Glycation BSA-Glucose (IC50),[3],Inactive
"C=CCc1ccc(O)c(OC)c1 [Eugenol, eugenol]",α-Glucosidase (IC50),α-glucosidase,Inactive
same,Protein Glycation BSA-MGO (IC50),[1],Inactive
same,inhibition at 83 µg/mL,15-LOX (lipoxygenase); [5],51 ± 0.2%
same,IC50,[3],244 µM
"O=C1C=CC(=O)c2c(O)cccc21 [Juglone, juglone]",α-Glucosidase (IC50),α-glucosidase,5.7 ± 0.1 µg/mL
same,IC50,[1]; [6],632 µM
same,Inhibition of protein cross-link formation,[2],39%
same,inhibition at 2.5 µg/mL,15-LOX (lipoxygenase); 2.5 µg/mL,57 ± 0.1%
same,IC50,[3]; [7],345 µM
"O=c1c(O)c(-c2ccc(O)c(O)c2)oc2cc(O)cc(O)c12 [Quercetin, quercetin]",Inhibition of protein cross-link formation,[4],53%
same,inhibition at 25 µg/mL,15-LOX (lipoxygenase); 25 µg/mL,62 ± 0.1%
"C[C@@H]1O[C@@H](Oc2c(-c3ccc(O)c(O)c3)oc3cc(O)cc(O)c3c2=O)[C@H](O)[C@H](O)[C@H]1O [Quercitrin, quercitrin]",α-Glucosidase (IC50),α-glucosidase,7.6 ± 0.1 µg/mL
same,Inhibition of protein cross-link formation,[4],55%
same,IC50,[1],758 µM
same,inhibition at 16.2 µg/mL,15-LOX (lipoxygenase); [5],65 ± 0.1%
same,IC50,[3],201 µM
"C[C@@H]1O[C@@H](OC[C@H]2O[C@@H](Oc3c(-c4ccc(O)c(O)c4)oc4cc(O)cc(O)c4c3=O)[C@H](O)[C@@H](O)[C@@H]2O)[C@H](O)[C@H](O)[C@H]1O [Rutin, reference compound]",IC50,[1]; [6],1670 µM
same,inhibition at 12.5 µg/mL,15-LOX (lipoxygenase); 12.5 µg/mL,62 ± 0.1%
same,IC50,[3]; [7],49.1 µM
O=C(O)c1cc(O)c(O)c(O)c1 [gallic acid],α-Glucosidase (IC50),α-glucosidase,8.2 µg/mL
"C/C1=C\CC/C(C)=C/CC(C)(C)/C=C/C1 [α-Humulene, α-humulene]",α-Glucosidase (IC50),α-glucosidase,Inactive
same,Protein Glycation BSA-MGO (IC50),"[1]; oxidative mode, Table 6",Inactive
same,Inhibition of protein cross-link formation,[2],40%
same,15-LOX Assay (% Inhibition),15-LOX (lipoxygenase); 13.0 µg/mL,60.0 ± 0.1% ^3
same,Protein Glycation BSA-Glucose (IC50),"[3]; non-oxidative mode, Table 6",Inactive

# — PMC9571302, “Evaluation of Major Constituents of Medicinally Important Plants for Anti-Inflammatory, Antidiabetic and AGEs Inhibiting Properties: In Vitro and Simulatory Evidence” (Molecules, 2022)
